Test results: ChEMBL document CHEMBL5576097, “Synthesis and biological evaluation of novel penindolone derivatives as potential antiproliferative agents against SCLC in vitro” (Bioorg Med Chem Lett, 2024)
Calls of active or inactive are those of the source. The rule behind the calls is not given here.

Tests used:
H69AR [1] = assay: Antiproliferative activity against human NCI-H69AR cells by SRB assay; type: functional, cell-based
H69AR [2] = assay: Induction of apoptosis in human NCI-H69AR cells assessed as increase in cleaved PARP protein expression by Western blot analysis; type: functional, cell-based; settings: dose 0.5-8 µmol/L
H69AR [3] = assay: Induction of apoptosis in human NCI-H69AR cells assessed as increase in BAX protein expression by Western blot analysis; type: functional, cell-based; settings: dose 0.5-8 µmol/L
H69AR [4] = assay: Inhibition of colony formation in human NCI-H69AR cells; type: functional, cell-based; settings: dose 0-8 µM
H69AR [5] = assay: Induction of apoptosis in human NCI-H69AR cells assessed as live cells at 8 micromol/L measured after 48 hrs by Annexin V-FITC/PI staining based flow cytometry analysis (reference value: 97.7%); type: functional; settings: dose 8 µmol/L, at 8 µM
H69AR [6] = assay: Inhibition of colony formation in human NCI-H69AR cells at 8 uM relative to control; type: functional
H69AR [7] = assay: Induction of cell cycle arrest in human NCI-H69AR cells assessed as increase in number of cells in G0/G1 phase at 0 to 8 uM measured after 24 hrs by flow cytometry analysis; type: functional, cell-based; settings: dose 0-8 µM
H69AR [8] = assay: Induction of apoptosis in human NCI-H69AR cells assessed as reduction in Bcl-2 protein expression by Western blot analysis; type: functional, cell-based; settings: dose 0.5-8 µmol/L
H69AR [9] = assay: Induction of apoptosis in human NCI-H69AR cells assessed as early apoptotic cells at 8 micromol/L measured after 48 hrs by Annexin V-FITC/PI staining based flow cytometry analysis (reference value: 1.96%); type: functional; settings: dose 8 µmol/L, at 8 µM
H69AR [10] = assay: Induction of apoptosis in human NCI-H69AR cells assessed as dead cells at 4 micromol/L measured after 48 hrs by Annexin V-FITC/PI staining based flow cytometry analysis (reference value: 0%); type: functional; settings: dose 4 µmol/L, at 4 µM
H69AR [11] = assay: Induction of apoptosis in human NCI-H69AR cells assessed as late apoptotic cells at 4 micromol/L measured after 48 hrs by Annexin V-FITC/PI staining based flow cytometry analysis (reference value: 0.38%); type: functional; settings: dose 4 µmol/L, at 4 µM
H69AR [12] = assay: Induction of apoptosis in human NCI-H69AR cells assessed as dead cells at 2 micromol/L measured after 48 hrs by Annexin V-FITC/PI staining based flow cytometry analysis (reference value: 0%); type: functional; settings: dose 2 µmol/L, at 2 µM
NCI-H358 = assay: Antiproliferative activity against human NCI-H358 cells by SRB assay; type: functional, cell-based
H69AR [13] = assay: Induction of cell cycle arrest in human NCI-H69AR cells assessed as reduction in number of cells in S phase measured after 24 hrs by flow cytometry analysis; type: functional, cell-based; settings: dose 0-8 µM
H69AR [14] = assay: Induction of apoptosis in human NCI-H69AR cells assessed as live cells at 4 micromol/L measured after 48 hrs by Annexin V-FITC/PI staining based flow cytometry analysis (reference value: 97.7%); type: functional; settings: dose 4 µmol/L, at 4 µM
H69AR [15] = assay: Induction of apoptosis in human NCI-H69AR cells assessed as live cells at 2 micromol/L measured after 48 hrs by Annexin V-FITC/PI staining based flow cytometry analysis (reference value: 97.7%); type: functional; settings: dose 2 µmol/L, at 2 µM
H69AR [16] = assay: Induction of apoptosis in human NCI-H69AR cells assessed as late apoptotic cells at 2 micromol/L measured after 48 hrs by Annexin V-FITC/PI staining based flow cytometry analysis (reference value: 0.38%); type: functional; settings: dose 2 µmol/L, at 2 µM
H69AR [17] = assay: Induction of apoptosis in human NCI-H69AR cells assessed as early apoptotic cells at 2 micromol/L measured after 48 hrs by Annexin V-FITC/PI staining based flow cytometry analysis (reference value: 1.96%); type: functional; settings: dose 2 µmol/L, at 2 µM
H69AR [18] = assay: Induction of apoptosis in human NCI-H69AR cells assessed as early apoptotic cells at 4 micromol/L measured after 48 hrs by Annexin V-FITC/PI staining based flow cytometry analysis (reference value: 1.96%); type: functional; settings: dose 4 µmol/L, at 4 µM
H69AR [19] = assay: Induction of apoptosis in human NCI-H69AR cells assessed as reduction in XIAP protein expression by Western blot analysis; type: functional, cell-based; settings: dose 0.5-8 µmol/L
H69AR [20] = assay: Induction of apoptosis in human NCI-H69AR cells assessed as late apoptotic cells at 8 micromol/L measured after 48 hrs by Annexin V-FITC/PI staining based flow cytometry analysis (reference value: 0.38%); type: functional; settings: dose 8 µmol/L, at 8 µM
A549 = assay: Antiproliferative activity against human A549 cells by SRB assay; type: functional, cell-based
H69AR [21] = assay: Induction of apoptosis in human NCI-H69AR cells assessed as dead cells at 8 micromol/L measured after 48 hrs by Annexin V-FITC/PI staining based flow cytometry analysis (reference value: 0%); type: functional; settings: dose 8 µmol/L, at 8 µM
H69AR [22] = assay: Induction of apoptosis in human NCI-H69AR cells assessed as increase in cleaved caspase-8 protein expression by Western blot analysis; type: functional, cell-based; settings: dose 0.5-8 µmol/L

Cc1cc(C(=O)c2ccc(C(F)(F)F)cc2)c(O)c(Cc2[nH]c3ccccc3c2Cc2c(O)c(C)cc(C(=O)c3ccc(C(F)(F)F)cc3)c2O)c1O
IC50 (H69AR [1]): 4.02 µM

Cc1cc(C(=O)c2ccccc2Br)c(O)c(Cc2[nH]c3ccccc3c2Cc2c(O)c(C)cc(C(=O)c3ccccc3Br)c2O)c1O
IC50 (H69AR [1]): 7 µM

Cc1cc(C(=O)c2ccccc2F)c(O)c(Cc2[nH]c3ccccc3c2Cc2c(O)c(C)cc(C(=O)c3ccccc3F)c2O)c1O
IC50 (H69AR [1]): 5.34 µM

Cc1cc(C(=O)c2ccccc2Cl)c(O)c(Cc2[nH]c3ccccc3c2Cc2c(O)c(C)cc(C(=O)c3ccccc3Cl)c2O)c1O
IC50 (H69AR [1]): 5.97 µM

Cc1ccccc1C(=O)c1cc(C)c(O)c(Cc2[nH]c3ccccc3c2Cc2c(O)c(C)cc(C(=O)c3ccccc3C)c2O)c1O
IC50 (H69AR [1]): 3.17 µM

Cc1cc(C(=O)CC(C)C)c(O)c(Cc2[nH]c3ccccc3c2Cc2c(O)c(C)cc(C(=O)CC(C)C)c2O)c1O
IC50 (H69AR [1]): > 50 µM

COc1ccc(C(=O)c2cc(C)c(O)c(Cc3[nH]c4ccccc4c3Cc3c(O)c(C)cc(C(=O)c4ccc(OC)cc4)c3O)c2O)cc1
IC50 (H69AR [1]): 3.36 µM

CCc1cc(C(C)=O)c(O)c(Cc2[nH]c3ccccc3c2Cc2c(O)c(CC)cc(C(C)=O)c2O)c1O
IC50 (H69AR [1]): > 50 µM

Cc1cc(C(=O)c2cccc(Cl)c2)c(O)c(Cc2[nH]c3ccccc3c2Cc2c(O)c(C)cc(C(=O)c3cccc(Cl)c3)c2O)c1O
IC50 (H69AR [1]): 2.81 µM

Cc1cc(C(=O)c2ccc(Cl)cc2Cl)c(O)c(Cc2[nH]c3ccccc3c2Cc2c(O)c(C)cc(C(=O)c3ccc(Cl)cc3Cl)c2O)c1O
IC50 (H69AR [1]): 4 µM

Cc1cc(C(=O)c2ccc(CCl)cc2)c(O)c(Cc2[nH]c3ccccc3c2Cc2c(O)c(C)cc(C(=O)c3ccc(CCl)cc3)c2O)c1O
IC50 (H69AR [1]): 13.2 µM

Cc1cc(C(=O)c2ccc(Br)cc2)c(O)c(Cc2[nH]c3ccccc3c2Cc2c(O)c(C)cc(C(=O)c3ccc(Br)cc3)c2O)c1O
Activity (H69AR [2]): Dose-Dependent Effect | Activity (H69AR [3]): Dose-Dependent Effect | inhibition (H69AR [4]): Dose-Dependent Effect | Activity (H69AR [5]): 62.8% | inhibition at 8 µM (H69AR [6]): 100% | Activity (H69AR [7]): Active | Activity (H69AR [8]): Dose-Dependent Effect | Activity (H69AR [9]): 28.5% | Activity (H69AR [10]): 0.057% | Activity (H69AR [11]): 5.7% | Activity (H69AR [12]): 0.01% | IC50 (NCI-H358): 35.8 µM | Activity (H69AR [13]): Dose-Dependent Effect | Activity (H69AR [14]): 82.9% | Activity (H69AR [15]): 92.9% | Activity (H69AR [16]): 2.24% | Activity (H69AR [17]): 4.85% | Activity (H69AR [18]): 11.3% | IC50 (H69AR [1]): 1.58 µM | Activity (H69AR [19]): Dose-Dependent Effect | Activity (H69AR [20]): 8.22% | IC50 (A549): 21.2 µM | Activity (H69AR [21]): 0.46% | Activity (H69AR [22]): Dose-Dependent Effect

Cc1cc(C(=O)c2cccc(Br)c2)c(O)c(Cc2[nH]c3ccccc3c2Cc2c(O)c(C)cc(C(=O)c3cccc(Br)c3)c2O)c1O
IC50 (H69AR [1]): 1.86 µM

Cc1cccc(C(=O)c2cc(C)c(O)c(Cc3[nH]c4ccccc4c3Cc3c(O)c(C)cc(C(=O)c4cccc(C)c4)c3O)c2O)c1
IC50 (H69AR [1]): 4.78 µM

Cc1cc(C(=O)c2cccc(F)c2)c(O)c(Cc2[nH]c3ccccc3c2Cc2c(O)c(C)cc(C(=O)c3cccc(F)c3)c2O)c1O
IC50 (H69AR [1]): 1.94 µM

Cc1ccc(C(=O)c2cc(C)c(O)c(Cc3[nH]c4ccccc4c3Cc3c(O)c(C)cc(C(=O)c4ccc(C)cc4)c3O)c2O)cc1
IC50 (H69AR [1]): 3.41 µM

CCC(=O)c1cc(C)c(O)c(Cc2[nH]c3ccccc3c2Cc2c(O)c(C)cc(C(=O)CC)c2O)c1O
IC50 (H69AR [1]): > 50 µM

Cc1cc(C(=O)c2ccc3ccccc3c2)c(O)c(Cc2[nH]c3ccccc3c2Cc2c(O)c(C)cc(C(=O)c3ccc4ccccc4c3)c2O)c1O
IC50 (H69AR [1]): 41.5 µM

COc1cccc(C(=O)c2cc(C)c(O)c(Cc3[nH]c4ccccc4c3Cc3c(O)c(C)cc(C(=O)c4cccc(OC)c4)c3O)c2O)c1
IC50 (H69AR [1]): 4.25 µM

Cc1cc(C(=O)c2ccc(F)cc2)c(O)c(Cc2[nH]c3ccccc3c2Cc2c(O)c(C)cc(C(=O)c3ccc(F)cc3)c2O)c1O
IC50 (H69AR [1]): 2.21 µM

Cc1cc(C(=O)c2ccc(Cl)cc2)c(O)c(Cc2[nH]c3ccccc3c2Cc2c(O)c(C)cc(C(=O)c3ccc(Cl)cc3)c2O)c1O
IC50 (H69AR [1]): 1.64 µM

CC(=O)c1cc(C)c(O)c(Cc2[nH]c3ccccc3c2Cc2c(O)c(C)cc(C(C)=O)c2O)c1O
IC50 (H69AR [1]): 42.5 µM

Cc1cc(C(=O)c2ccccc2)c(O)c(Cc2[nH]c3ccccc3c2Cc2c(O)c(C)cc(C(=O)c3ccccc3)c2O)c1O
IC50 (H69AR [1]): 7.58 µM
